Consider nine compounds from patent publication US20160002248A1, “GLS1 INHIBITORS FOR TREATING DISEASE” (Board of Regents, The University of Texas System, priority 2014, published 2016).

Bounds are passed on as bounds.

The target of experiment [1] is T1, purified recombinant human GAC (GLS1) (Homo sapiens, UniProt O94925).
T1 sequence (O94925 55-598 isoform O94925-3 limits assumed): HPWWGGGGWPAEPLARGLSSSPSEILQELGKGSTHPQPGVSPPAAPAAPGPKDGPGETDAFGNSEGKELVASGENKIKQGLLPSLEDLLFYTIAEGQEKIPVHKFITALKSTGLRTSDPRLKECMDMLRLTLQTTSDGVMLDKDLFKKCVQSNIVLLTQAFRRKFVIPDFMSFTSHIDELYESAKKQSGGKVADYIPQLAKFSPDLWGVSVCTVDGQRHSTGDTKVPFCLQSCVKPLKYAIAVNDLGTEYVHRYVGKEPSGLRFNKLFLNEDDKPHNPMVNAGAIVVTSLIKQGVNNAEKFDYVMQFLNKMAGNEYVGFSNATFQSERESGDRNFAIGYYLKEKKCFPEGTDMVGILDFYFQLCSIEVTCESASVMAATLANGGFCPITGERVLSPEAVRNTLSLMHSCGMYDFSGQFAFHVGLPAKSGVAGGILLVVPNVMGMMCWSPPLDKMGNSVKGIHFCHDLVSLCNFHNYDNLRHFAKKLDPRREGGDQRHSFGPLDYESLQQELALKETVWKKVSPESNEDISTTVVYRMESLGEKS
Put plainly: GLS1 Enzymatic Activity Assay (dual-coupled enzymatic assay). Type of experiment: biochemical. The essentials: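 Recombinant human GAC (2 nM) preincubated with 50 mM potassium phosphate, then inhibitor (10 min each, RT); 1 mM glutamine, pH 7.4 Hepes buffer, 1% DMSO. Glutamate coupled via glutamate oxidase/HRP to resorufin (Ex 530/Em 590), kinetic or 20-min endpoint; IC50 by four-parameter logistic fit.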

Another experiment deals with A549 cells. The experiment can be described thus: Proliferation Assay (A549 cell viability, Cell Titer Fluor). Type of experiment: cell-based. As to conditions: Homo sapiens, 72 hours. The procedure, abridged:
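A549 cells in RPMI 1640 with 10% dialyzed FBS were seeded at 1000 cells/well, grown 24 h, then exposed to compound (0.5% DMSO final) for 72 h at 37 °C, 5% CO2. Viability was read by Cell Titer Fluor fluorescence; EC50 from four-parameter logistic fit.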

With `CC(C)OC(=O)N1CC(c2cc3cc(CCCCn4cc(C(=O)NCc5cc(C(F)(F)F)ccn5)nn4)nnc3[nH]2)C1` [Example 200, propan-2-yl 3-(3-{4-[4-({[4-(trifluoromethyl)pyridin-2-yl]methyl}carbamoyl)-1H-1,2,3-triazol-1-yl]butyl}-7H-pyrrolo[2,3-c]pyridazin-6-yl)azetidine-1-carboxylate], in experiment [1], the IC50 is less than 100 nM. Moreover, the EC50 with A549 cells lay within 100 to 500 nM.

As for `CC(C)(C)OC(=O)N1CC(c2cc3cc(CCCCn4cc(C(=O)NCc5ccc(C(F)(F)F)cn5)nn4)nnc3[nH]2)C1` [Example 201, tert-butyl 3-(3-{4-[4-({[5-(trifluoromethyl)pyridin-2-yl]methyl)carbamoyl)-1H-1,2,3-triazol-1-yl]butyl}-7H-pyrrolo[2,3-c]pyridazin-6-yl)azetidine-1-carboxylate], the IC50 in experiment [1] was less than 100 nM. In addition, the EC50 in the experiment on A549 cells lay in the range of 100 to 500 nM.

Turning to `Cc1ccc(CNC(=O)c2cn(CCCCc3cc4cc(-c5cccc(F)c5)[nH]c4nn3)nn2)cn1` [Example 202, 1-{4-[6-(3-fluorophenyl)-7H-pyrrolo[2,3-c]pyridazin-3-yl]butyl}-N-[(6-methylpyridin-3-yl)methyl]-1H-1,2,3-triazole-4-carboxamide], in experiment [1], the IC50 is less than 100 nM. The EC50 with A549 cells was in the range of 100 to 500 nM.

In the case of `Cc1ccc(CNC(=O)c2cn(CCCCc3cc4cc(-c5cccc(C(F)(F)F)c5)[nH]c4nn3)nn2)cn1` [Example 203, N-[(6-methylpyridin-3-yl)methyl]-1-(4-{6-[3-(trifluoromethyl)phenyl]-7H-pyrrolo[2,3-c]pyridazin-3-yl}butyl)-1H-1,2,3-triazole-4-carboxamide], the IC50 in experiment [1] is less than 100 nM. The EC50 with A549 cells was 100 to 500 nM.

Turning to `O=C(NCc1cccc(OC(F)(F)F)c1)c1cn(CCCCc2cc3cc(-c4ccccc4F)[nH]c3nn2)nn1` [Example 204, 1-{4-[6-(2-fluorophenyl)-7H-pyrrolo[2,3-c]pyridazin-3-yl]butyl}-N-{[3-(trifluoromethoxy)phenyl]methyl}-1H-1,2,3-triazole-4-carboxamide], the IC50 in experiment [1] was less than 100 nM. Moreover, the EC50 with A549 cells is 500 to 5000 nM.

With `O=C(NCc1cc(OC(F)(F)F)ccc1F)c1cn(CCCCc2cc3cc(-c4ccccc4F)[nH]c3nn2)nn1` [Example 205, N-{[2-fluoro-5-(trifluoromethoxy)phenyl]methyl}-1-(4-[6-(2-fluorophenyl)-7H-pyrrolo[2,3-c]pyridazin-3-yl]butyl)-1H-1,2,3-triazole-4-carboxamide], the IC50 in experiment [1] was less than 100 nM. For the same compound, the EC50 with A549 cells is 100 to 500 nM.

In the case of `CC(C)OC(=O)N1CC(c2cc3cc(CCCCn4cc(C(=O)NCc5ccc(C(F)(F)F)cn5)nn4)nnc3[nH]2)C1` [Example 206, propan-2-yl 3-(3-{4-[4-({[5-(trifluoromethyl)pyridin-2-yl]methyl}carbamoyl)-1H-1,2,3-triazol-1-yl]butyl}-7H-pyrrolo[2,3-c]pyridazin-6-yl)azetidine-1-carboxylate], the IC50 in experiment [1] is less than 100 nM. This compound returned an EC50 in the experiment on A549 cells of 100 to 500 nM.

For `O=C(NCc1ccc(C(F)(F)F)nc1)c1cn(CCCCc2cc3c(C4CC4)c(C4CC4)[nH]c3nn2)nn1` [Example 207, 1-(4-{5,6-dicyclopropyl-7H-pyrrolo[2,3-c]pyridazin-3-yl}butyl)-N-{[6-(trifluoromethyl)pyridin-3-yl]methyl}-1H-1,2,3-triazole-4-carboxamide], the IC50 in experiment [1] is less than 100 nM. In addition, the EC50 with A549 cells fell in the range of 100 to 500 nM.

As to `O=C(NCc1ccc(C(F)(F)F)cn1)c1cn(CCCCc2cc3c(C4CC4)c(C4CC4)[nH]c3nn2)nn1` [Example 208, 1-(4-{5,6-dicyclopropyl-7H-pyrrolo[2,3-c]pyridazin-3-yl}butyl)-N-{[5-(trifluoromethyl)pyridin-2-yl]methyl}-1H-1,2,3-triazole-4-carboxamide], the IC50 in experiment [1] was less than 100 nM. This compound also gave a 50% effective concentration (EC50) in the experiment with A549 cells of 100 to 500 nM.
